Measurements reported in US20230134714A1, “COMPOSITIONS COMPRISING BACTERIAL STRAINS” (4D PHARMA RESEARCH LIMITED, priority 2018, published 2023).
Structures can show the parent of a compound that is named as a salt.

What was measured:
HDAC [1] = assay: HDAC inhibition on HT-29 cell lysate; type: biochemical; conditions: different concentrations
Method: (§1) To investigate which metabolites were responsible for the strain-induced HDAC inhibition, different concentrations of hexanoic acid, valeric acid and sodium butyrate were measured for their HDAC inhibition on whole HT-29 cells and on HT-29 cell lysate.

HDAC [2] = assay: Global HDAC activity analysis in HT-29 cells; type: cell-based; conditions: for inhibition of total HDAC activity: whole HT-29 cells or cell lysate not specified
Method: Whole cells and cell free supernatants of stationary phase 43042 cultures were isolated by centrifugation and filtering in a 0.22 uM filter. HT-29 cells were used 3 days' post confluence and stepped down in 1 mL DTS 24 hours prior to commencement of the experiment. The HT-29 cells were challenged with 10% cell free supernatant diluted in DTS and this was left to incubate for 48 hours. […] proteins were then extracted using the Sigma Aldrich […] extraction kit and samples were snap frozen prior to HDAC activity measurement. HDAC activity kit was assessed fluorometrically using the Sigma Aldrich (UK) kit.
as §1

[3] = test system: graft versus host disease (GVHD) induced in Balb/C mice; assay: GVHD model (TBI plus allogeneic cell transfer); type: in vivo
From the text: All animals were weighed and randomized by weight into treatment groups prior to study start. Prior to GVHD induction on Days −1 and 0, all animals were pre-treated (PO) with PBS (Groups 1-4), NCIMB 43171 (Group 5), or Butyrate salt control (Group 6) daily starting on Day −14. Butyrate was used as a positive control as butyrate deficit has been identified in the gut of GVHD patients.
GVHD was induced in mice using a single acute dose of 8 Gy of total body irradiation (TBI) on Day −1. On Day 0, these recipient mice were given an intravenous injection of a combination of T cell depleted bone marrow cells and splenic cells from donor C57Bl/6 mice in PBS. Bone marrow cells were isolated using standard flushing practices, and were T cell depleted using the cell surface T cell antigen CD3, with a CD3-biotin kit (Miltenyi Biotec catalog 130-094-973). Splenocytes were isolated using Miltenyi GentleMACS Dissociators. Animals in Group 1 served as naïve controls and received neither TBI nor cell transfer. […] Animals in Group 3 served as syngeneic adoptive transfer controls; these animals received 8 Gy of TBI on Day −1, and an intravenous injection of a combination of T cell depleted bone marrow cells and splenic cells from donor Balb/C mice in sterile PBS.
Daily test article dosing continued for the duration of the study (Days −14 to 30). Animal survival was recorded daily, as an indication of GVHD severity. Animals were also weighed, observed, and given a clinical GVHD score daily for the duration of the study following GVHD induction. The GVHD score was assessed by a standard scoring system based on five criteria (Table 21): percentage of weight change, posture (hunching), activity, fur texture, and skin integrity (maximum score=10).
On Day 29, all surviving animals underwent endoscopy to monitor colonic inflammation.
On Day 30, blood was collected by RO bleed; blood (approximately 150-300 μL) was collected into two tubes—approximately two third of the blood was collected into K2EDTA tubes, and the remaining one third was collected into lithium-heparin tubes. Both samples were centrifuged and processed for plasma, and plasma tubes were clearly labeled to indicate the anti-coagulant used. For the K2EDTA sample, plasma was aliquoted as follows: 25 μL (for use in downstream citrulline assay), and remainder. All plasma was frozen at −80° C. All K2EDTA samples were assessed for citrulline by ELISA upon study completion

[4] = compared with Group 4 (PBS-TBI+allogeneic transfer)

## CCCC(=O)[O-].[Na+] [sodium butyrate, Sodium butyrate]
HDAC [1]
  inhibition of HDAC activity on HT-29 cell lysate: significant (P<0.05) inhibition
HDAC [2]; different concentrations, whole cells
  inhibition of HDAC activity on whole HT-29 cells: significant (P<0.05) inhibition

## CCCCC(=O)O [Valeric acid, valeric acid]
HDAC [2]
  inhibition of total HDAC activity: inhibited total HDAC activity

## C=CC[C@@H]1/C=C(\C)C[C@H](C)C[C@H](OC)[C@H]2O[C@@](O)(C(=O)C(=O)N3CCCC[C@H]3C(=O)O[C@H](/C(C)=C/[C@@H]3CC[C@@H](O)[C@H](OC)C3)[C@H](C)[C@@H](O)CC1=O)[C@H](C)C[C@@H]2OC [tacrolimus]
[3]; compared to Group 3
  mean GVHD scores: trend was also observed
[3]; [4]
  mean body weight over the course of the study: same trend was observed

## CCCC(=O)O [Butyrate salt control]
[3]; compared to Group 1 (PBS-naive)
  mean body weight over the course of the study: significantly decreased
[3]; compared to Group 3 (PBS-TBI+syngeneic transfer)
  mean body weight over the course of the study: significantly decreased
[3]; [4]
  mean body weight over the course of the study: No significant differences
[3]; endoscopy Day 29, compared to naive mice (Group 1)
  mean colitis severity scores: increased

## CCCCCC(=O)O [hexanoic acid]
HDAC [2]
  inhibition of total HDAC activity: did show significant inhibitory activity
